# Key:
# [1] = test system: yellow nutsedge (Cyperus esculentus); assay: Test Example 1: foliar spray herbicide effect on yellow nutsedge in greenhouse pots; type: in vivo; conditions: evaluated 25 days after treatment, level 0-10
# Protocol: (§1) Evaluation of phytotoxicity against a crop was shown by “no” when almost no phytotoxicity was observed, “low” when a low level phytotoxicity was observed, “medium” when a medium level phytotoxicity was observed and “high” when a high level phytotoxicity was observed.
# (§2) A plastic pot of 11 cm in diameter and 8 cm in depth was filled with field soil. A tuber of yellow nutsedge (Cyperus esculentus) was planted and grown in a greenhouse for 21 days.
# (§3) An emulsion of Compound A-1 was prepared by sufficiently mixing 5 parts of Compound A-1, 6 parts of Sorpol 3005× (surfactant, produced by Toho Chemical) and 89 parts of xylene.
# (§4) Each of • single use of an emulsion of Compound A-1, • single use of an formulation of Imazethapyr (commercial name: Pursuit, produced by American Cyanamid, containing 24% of imazethapyr), • single use of an formulation of Imazamox (commercial name: Raptur, produced by American Cyanamid, containing 12.1% of imazamox), • a mixed composition of an emulsion of Compound A-1 and an formulation of Imazethapyr, and • a mixed composition of an emulsion of Compound A-1 and an formulation of Imazamox, were diluted with water containing 1% Agri-dex (produced by Helena). Respective dilutions were uniformly sprayed from upper side onto foliages of yellow nutsedge grown as described above with a small sprayer such that the amounts of the active ingredients were the amounts shown in Table 4. Immediately after the treatment with the test compounds, seeds of soybean were sown.
# (§5) After the treatment, they were raised in a greenhouse for 25 days and the effect against weeds was evaluated. In addition, after 14 days of the treatment, the phytotoxicity to soybean was evaluated.
# [2] = test system: soybean; assay: Test Example 1: phytotoxicity to soybean sown immediately after treatment; type: in vivo; conditions: evaluated after 14 days
# Protocol: as §1, §2, §3
# as §4, with “Respective dilutions were uniformly sprayed from upper side onto foliages of yellow nutsedge grown as described above with a small sprayer such that the amounts of the active ingredients were the amounts shown in Table 4. Immediately after the treatment with the test compounds, seeds of soybean were sown.” left out
# as §5
Compound,Herbicide Effect yellow nutsedge ([1]; 10 g/ha active ingredient),Herbicide Effect yellow nutsedge ([1]; 40 g/ha active ingredient),Phytotoxicity soybean ([2]; 10 g/ha active ingredient),Phytotoxicity soybean ([2]; 40 g/ha active ingredient),Herbicide Effect yellow nutsedge ([1]; 20 g/ha active ingredient),Herbicide Effect yellow nutsedge ([1]; 80 g/ha active ingredient)
"COCc1cnc(C2=NC(C)(C(C)C)C(=O)N2)c(C(=O)O)c1 (stereo not drawn) [Imazamox, 2-(4-isopropyl-4-methyl-5-oxo-2-imidazolin-2-yl)-5-(methoxymethyl)nicotinic acid]",1,2,no,no,,
"CCc1cnc(C2=NC(C)(C(C)C)C(=O)N2)c(C(=O)O)c1 (stereo not drawn) [Imazethapyr, 5-ethyl-2-(4-isopropyl-4-methyl-5-oxo-2-imidazolin-2-yl)nicotinic acid]",,,,,1,2

# Source: patent publication US7482307B2, “Herbicide composition” (Sumitomo Chemical Company, Limited, priority 2001, dated 2009)
